Source: patent US12268798B2, “Method for screening of unpleasant odor masking agents” (Takasago International Corporation, priority 2020, dated 2025)

Columns and labels:
olfactory receptor OR2L3 [1] = target: T1, olfactory receptor OR2L3 (Homo sapiens, UniProt Q8NG85); test: Luciferase reporter gene assay: effect of suppressing the response of OR2L3 to unpleasant odor-causing substance; assay type: cell-based; conditions: for Effect of suppressing the response of OR2L3 to indole: test substance mixed with indole, FIGS. 10 to 12; for Effect of suppressing the response of OR2L3 to skatole: test substance mixed with skatole, ratio of Fold Increase value, FIGS. 6 to 9
T1 construct: N-terminal 20 amino acid residues of bovine rhodopsin (Rho tag); expressed in transfected cells; host or cells: HEK293T cells, transient lipofection with the pME18S expression vector, an RTP1S vector and the luciferase reporter vectors
T1 sequence (Q8NG85 1-312): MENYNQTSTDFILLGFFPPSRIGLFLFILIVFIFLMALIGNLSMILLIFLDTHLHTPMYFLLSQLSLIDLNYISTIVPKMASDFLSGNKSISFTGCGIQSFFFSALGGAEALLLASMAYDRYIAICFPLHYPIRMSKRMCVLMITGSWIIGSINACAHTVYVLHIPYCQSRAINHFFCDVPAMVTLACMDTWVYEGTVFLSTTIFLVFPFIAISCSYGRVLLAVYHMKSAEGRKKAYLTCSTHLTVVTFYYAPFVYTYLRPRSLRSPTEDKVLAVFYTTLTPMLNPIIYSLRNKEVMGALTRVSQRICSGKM
Method: (§1) 0.05 μg of the human olfactory receptor gene expression vector, 0.01 μg of an RTP1S vector, 0.01 μg of a firefly luciferase vector pGL4.29 containing a cAMP-responsive sequence promoter (Promega), and 0.005 μg of a Renilla luciferase vector pGL4.74 containing a thymidine kinase promoter (Promega) were dissolved in 10 μL of Opti-MEM I (gibco) to obtain a gene solution (for one well). 100 μL of HEK293T cells were seeded in each well of a 96-well plate (Biocoat manufactured by Corning) so as to reach confluency after 24 hours. According to the directions for use of Lipofectamine 3000, by the lipofection method, the gene solution was added to each well to perform gene transfer to cells, and culturing was performed under 5% carbon dioxide atmosphere at 37° C. for 24 hours.
After removing the culture medium, 50 μL of CD293 medium (gibco) (20 μM L-glutamine added) including measured concentration of an aroma compound as a sample was added to each well, and stimulation was performed for 3 hours. After that, the luciferase activity was measured according to the directions for use of Dual-Luciferase Reporter Assay System (Promega). The response strength of the olfactory receptor was expressed by the Fold Increase value, which is obtained by dividing the luciferase activity generated by stimulation of the aroma compound by the luciferase activity generated in the test system not including the aroma compound. […]
With respect to unpleasant odor masking agents (group of candidate substances) including Group A shown in Table 1, the effects of suppressing the response of OR2L3 that strongly responded to unpleasant odors were measured by means of luciferase reporter gene assay.
In luciferase reporter gene assay, skatole and Guava coeur (Ethyl 3-mercapto-2-methylbutyrate) were used by being mixed with a sample. The Fold Increase value in the test in which Guava coeur was not mixed was regarded as 1, and the ratio of the Fold Increase value in the test in which Guava coeur was mixed was obtained.
Guava coeur in the evaluation of the effect of suppressing the response of OR2L3 was replaced by Dextramber® (1-(2,2,6-trimethylcyclohexyl) hexan-3-ol, registered trademark), and the test was conducted in the same manner. […] Similarly, Guava coeur was replaced by Hindinol® (2-methyl-4-(2,2,3-trimethyl-3-cyclopentenyl)-2-buten-1-ol, registered trademark) and the test was conducted.
Regarding the unpleasant odor in the evaluation of the effect of suppressing the response of OR2L3, skatole was replaced by indole, and the test was conducted in the same manner. […]

indole odor = test: Sensory evaluation of unpleasant odor suppression ability (indole), panel of 20 persons; assay type: in vivo, human; conditions: for Indole strength: average rating of 20 persons, scale 0 to 10, unpleasant odor alone rated 8, 10 μL indole diluted 100-fold plus 1 μL test substance, 1 hour at room temperature
Method: (§2) The unpleasant odor suppression ability of test substances having activity to inhibit receptor action was confirmed by sensory evaluation. A cotton ball on which 10 μL of skatole or indole diluted 100-fold with triethyl citrate as an unpleasant odor and 1 μL of a test substance were dropped was put into a plastic bottle (OZO-40 manufactured by Takemoto Yohki Co., Ltd.). The bottle was allowed to stand at room temperature for 1 hour to sufficiently volatilize odor molecules therein. The sensory evaluation test was conducted by a panel consisting of 20 persons, who made evaluation as follows: the odor strength in the case where the unpleasant odor was dropped solely was rated as 8, and the unpleasant odor strength in the case where the test substance was mixed was rated as from 0 (the unpleasant odor is not smelled) to 10 (the unpleasant odor is smelled very strongly). The average value was calculated from obtained numerical values.

skatole odor = test: Sensory evaluation of unpleasant odor suppression ability (skatole), panel of 20 persons; assay type: in vivo, human; conditions: for Skatole strength: average rating of 20 persons, scale 0 to 10, unpleasant odor alone rated 8, 10 μL skatole diluted 100-fold plus 1 μL test substance, 1 hour at room temperature; for Effect of suppressing the unpleasant odors (in words): unpleasant odors = skatole or indole
Method: as §2

[2] = test system: HEK293T cells in which OR2L3 was not expressed (Mock); test: Mock test, luciferase reporter gene assay using cells in which OR2L3 was not expressed; assay type: cell-based, human
Method: as §1
(§3) After removing the culture medium, 50 μL of CD293 medium (gibco) (20 μM L-glutamine added) including measured concentration of an aroma compound as a sample was added to each well, and stimulation was performed for 3 hours. After that, the luciferase activity was measured according to the directions for use of Dual-Luciferase Reporter Assay System (Promega). The response strength of the olfactory receptor was expressed by the Fold Increase value, which is obtained by dividing the luciferase activity generated by stimulation of the aroma compound by the luciferase activity generated in the test system not including the aroma compound.
(§4) Responses of the olfactory receptor OR2L3 to skatole, indole, α-terpineol, 4-terpineol or p-methylacetophenone as a typical example of the unpleasant odor-causing substance were measured with various concentrations by means of luciferase reporter gene assay. […] Meanwhile, in the Mock test (using cells in which OR2L3 was not expressed), no response was shown. That is, it was shown that OR2L3 specifically responds to the respective unpleasant odor-causing substances.

olfactory receptor OR2L3 [3] = target: T1, olfactory receptor OR2L3; test: Luciferase reporter gene assay: response of olfactory receptor OR2L3 to unpleasant odor-causing substance; assay type: cell-based; conditions: various concentrations; HEK293T cells expressing OR2L3; FIGS. 1 to 5
Method: A human olfactory receptor gene was obtained by cloning according to the PCR method using Human Genomic DNA: Female (Promega) based on the sequence information registered in GenBank. The N-terminal 20 amino acid residues of bovine rhodopsin were incorporated into a pME18S vector, and the obtained human olfactory receptor gene was further incorporated downstream thereof, thereby obtaining a human olfactory receptor gene expression vector.
as §1, §3, §4

| Effect of suppressing the response of OR2L3 to skatole (olfactory receptor OR2L3 [1]) | Response of the olfactory receptor OR2L3 (Fold Increase) (olfactory receptor OR2L3 [3]) | Compound | Indole strength (indole odor) | Skatole strength (skatole odor) | Effect of suppressing the unpleasant odors (in words) (skatole odor; sensory evaluation) | Response in the Mock test [2] | further results |
| --- | --- | --- | --- | --- | --- | --- | --- |
| concentration-dependently reducing | – | CCCC(O)CCC1C(C)CCCC1(C)C (stereo not shown) [1-(2,2,6-trimethylcyclohexyl)hexan-3-ol] | 3.9 | 4.0 | suppress | – | Effect of suppressing the response of OR2L3 to indole (olfactory receptor OR2L3 [1]): concentration-dependently reducing |
| concentration-dependently reducing | – | CC(=CCC1CC=C(C)C1(C)C)CO (stereo not shown) [2-methyl-4-(2,2,3-trimethyl-3-cyclopentenyl)-2-buten-1-ol] | 4.1 | 3.6 | suppress | – | Effect of suppressing the response of OR2L3 to indole (olfactory receptor OR2L3 [1]): concentration-dependently reducing |
| did not suppress | – | CC(C)(C)C1CCC(O)CC1 (stereo not shown) [4-t-butyleyclohexanol, 4-t-butylcyclohexanol, reference compound] | 6.0 | 6.3 | – | – | – |
| – | concentration-dependent responses | CC1=CCC(O)(C(C)C)CC1 (stereo not shown) [4-terpineol] | – | – | – | no response | – |
| – | – | O=C1CCCC=CCCCCCCCCCC1 [5-cyclohexadecenone] | 3.6 | 4.2 | suppress | – | – |
| – | – | CC(c1ccccc1)C1CC1C(C)(C)O (stereo not shown) [Dimethyl-2-(1-phenylethyl)cyclopropylmethanol] | 2.4 | 2.5 | suppress | – | – |
| concentration-dependently reducing | – | CCOC(=O)C(C)C(C)S (stereo not shown) [Ethyl 3-mercapto-2-methylbutyrate] | 3.3 | 3.0 | suppress | – | Effect of suppressing the response of OR2L3 to indole (olfactory receptor OR2L3 [1]): concentration-dependently reducing |
| did not suppress | – | CCCCCCOC(=O)c1ccccc1O [Hexyl salicylate, hexyl salicylate, reference compound] | 6.7 | 6.9 | – | – | – |
| concentration-dependently reducing | – | CC/C=C\CCOC(=O)CCCCC [cis-3-hexenyl hexanoate, reference compound] | – | – | – | – | – |
| – | – | CC1CCC(C(C)(C)S)C(=O)C1 (stereo not shown) [p-mentha-8-thio1-3-one, p-mentha-8-thiol-3-one] | 3.7 | 3.9 | suppress | – | – |
| – | concentration-dependent responses | CC(=O)c1ccc(C)cc1 [p-methylacetophenone] | – | – | – | no response | – |
| – | concentration-dependent responses | Cc1c[nH]c2ccccc12 [skatole] | – | – | – | no response | – |
| – | concentration-dependent responses | CC1=CCC(C(C)(C)O)CC1 (stereo not drawn) [α-terpineol] | – | – | – | no response | – |
| suppresses | – | Methyl fenchol | 3.1 | 3.3 | – | – | Suppression of the strength of indole odor (in words) (indole odor; sensory evaluation): suppressed; Suppression of the strength of skatole odor (in words) (skatole odor; sensory evaluation): significantly suppressed |

| Compound | Effect of suppressing the response of OR2L3 to skatole (olfactory receptor OR2L3 [1]) | Response of the olfactory receptor OR2L3 (Fold Increase) (olfactory receptor OR2L3 [3]) | Indole strength (indole odor) | Skatole strength (skatole odor) | Effect of suppressing the unpleasant odors (in words) (skatole odor; sensory evaluation) | Response in the Mock test [2] | further results |
| --- | --- | --- | --- | --- | --- | --- | --- |
| c1ccc2[nH]ccc2c1 [indole] | – | concentration-dependent responses | – | – | – | no response | – |
